From patent publication EP4497440A1, “USE OF 7-TRIFLUOROMETHYL-7ALPHA,25-DIHYDROXYCHOLESTEROL IN THE TREATMENT AND MODULATION OF AUTOIMMUNE AND INFLAMMATORY DISEASES OF THE NERVOUS SYSTEM AND NEURODEGENERATIVE DISEASES” (Gdanski Uniwersytet Medyczny, priority 2023, dated 2025)
“Also recorded” adds a separate entry of the source.

Legend:
[1] = test system: mouse organotypic cerebellar slices; experiment: Remyelination of organotypic cerebellar slices after LPC demyelination (Mbp mRNA by quantitative PCR); assay type: cell-based; settings: LPC 0.4 mg/ml, then treatment in serum-free culture medium for 14-16 days; barbadin 16 µM, 7α,25OHC 0.1 µM, NIBR189 10 µM; concentration of CF3-7α,25OHC not given; vs untreated LPC slices
Description: Organotypic cerebellar slices were sampled from ten-day old mice and then grown in an incubator for 14 days. After 14 days the myelin was chemically removed with LPC (0.4 mg/ml). Following the removal of the myelin sheaths, the slices were treated with: • 1. the control group: regular culture medium, without LPC • 2. LPC, then on serum-free culture medium for 14-16 days • 3. LPC followed by barbadin 16 µM in serum-free culture medium for 14-16 days • 4. LPC followed by 7α,25OHC 0.1 µM in serum-free culture medium for 14-16 days • 5. LPC followed by NIBR189 10 µM in serum-free culture medium for 14-16 days • 6. LPC followed by barbadin 16 µM + 7α,25OHC 0.1 µM in serum-free culture medium for 14-16 days
Once the experiment was completed (remyelination for 14-16 days) the slices were collected and MBP mRNA levels were measured by the PCR quantitative method. In the mouse organotypic cerebellar slices in which myelin sheaths were chemically removed with lysophosphatidylcholine (LPC) spontaneous myelin regeneration took place except for the slices treated with a selective EBI2 receptor antagonist (NIBR189). The results once again reveal key significance of EBI2 intracellular signalling for myelin regeneration. […] Barbadin, which inhibits internalisation of the EBI2 receptor, is necessary to achieve the therapeutic effect (faster remyelination) in the case of non-modified oxysterol (Fig 1 and Fig 2a).

[2] = in vivo, from reference [6]; cited from earlier work
[3] = test system: pro-inflammatory cytokine IL1β; experiment: Cuprizone model: IL1β mRNA in cerebellum lysates by PCR
Description: Identifying the mRNA levels of pro-inflammatory cytokine IL1β in mouse cerebellum lysates (Fig 11).

Structure (SMILES): C[C@H](CCCC(C)(C)O)[C@H]1CC[C@H]2[C@H]3[C@H](CC[C@]12C)[C@@]1(C)CC[C@H](O)CC1=C[C@]3(O)C(F)(F)F [CF3-7α,25OHC, cholestene-7β-trifluoromethyl,3β,7α,25-triol]
- remyelination (Mbp expression) [1]: remyelinate quicker than slices not treated with anything; also recorded: remyelinate faster than the untreated slices
- in vivo half life [2]: 12 h
- mRNA level of IL1β dropped by ([3]; cerebellum lysates, cuprizone model, compared to the group treated solely with vehicles): 28%
- blood-brain barrier penetration ([3]; concluded from the IL1β effect in the cerebellum): penetrates the blood-brain barrier
- pro-inflammatory cytokine IL1β in cerebellum lysates ([3]; cuprizone model, group #5): Reduction
